Experimental findings from patent US11185593B2, “Alkylating agent for alkylating target with driver oncogene mutation” (Chiba Prefecture, priority 2013, dated 2021) are described below.

Molecules are shown by their SMILES.

As usually defined, the IC50 is the concentration that inhibits the measured activity by half.

The test system of one series is HT-29. Nature of the series: Cytotoxicity test, WST-8 (cell counting kit-8), 48 hours. The following applies: Homo sapiens, HT-29, KRAS wild type, read-out: KR12 IC50. The series is classed as cell-based. The method, then: (§1) Using colon cancer and pancreatic cancer cell lines, the cells were seeded in each well of a 96-well microplate, resulting in a cell density of 3000 to 5000 cells/well, and they were then cultured overnight. On the following day, the cells of each type were treated with KR12 recognizing a codon 12 mutation in concentrations of 1 nM, 10 nM, 30 nM, 100 nM, 300 nM, and 1 μM for 48 hours. Thereafter, a WST-8 reagent was added to each well, using cell counting kit-8, and the obtained mixture was then reacted for 2 hours. After that, the number of cells was counted at a wavelength of 450 nm according to a colorimetric analysis method using a microplate reader. The method of counting the number of cells comprises: 1) obtaining the mean value of the medium alone, 2) subtracting the mean value of the medium from each well, 3) obtaining the mean value of DMSO, 4) dividing the medium-subtracted value by the mean value of DMSO and then multiplying by 100, 5) obtaining the mean value of each treatment group and a standard deviation, and then preparing a graph. The calculation formula of IC50 is the following: IC50=10 (LOG (A/B)×(50−C)/(D−C)+LOG (B)), wherein A: a higher concentration of two concentrations sandwiching 50%, B: a lower concentration of two concentrations sandwiching 50%, C: inhibitory percentage at B, and D: inhibitory percentage at A.
(§2) The cells used in the aforementioned experiment are human cancer cell lines SW480, SW620, SNU-C2B, LS180, SW1463, DLD-1, HT29, and Caco-2 (purchased from European Collection of Cell Cultures (ECACC)).
A general note: Formazan colour is commonly taken as a measure of viable cells.

For another series, the system named is Caco-2. The description is as above. In kind it is cell-based. The following applies: Homo sapiens, Caco-2, KRAS wild type, read-out: KR12 IC50. The method, then: as §1, §2
The next series deals with DLD-1. The description is as above. The following applies: Homo sapiens, DLD-1, KRAS G13D Hetero, read-out: KR12 IC50. The series is classed as cell-based. How it is done: as §1, §2
For the next series, the system named is SW1463. Described as above. The following applies: SW1463, KRAS G12C Homo, read-out: KR12 IC50. In kind it is cell-based. How it is done: as §1, §2
The next series has as its system SNU-C2B. Described as above. Particulars: Homo sapiens, KRAS G12D Hetero, read-out: KR12 IC50. In kind it is cell-based. The method, then: as §1, §2
Another series has as its system SW620. The series is described as above. In kind it is cell-based. Particulars: SW-620, SW620, KRAS G12V Homo, read-out: KR12 IC50. How it is done: as §1, §2
A further series relates to SW480. The description is as above. The series is classed as cell-based. The following applies: SW480, KRAS G12V Homo, read-out: KR12 IC50. How it is done:
as §1, §2

For series [1], the system named is active-type KRAS proteins (p21-ras proteins). Nature of the series: Measurement of RAS activity (RAS activation assay kit). Particulars: LS180, 50 nM, 48 hours, FIG. 12A. In kind it is cell-based, human. How it is done:
Cells (the number of cells: 2×10^6 cells/100 mm plate or 1×10^6 cells/100 mm plate) were cultured in a complete nutrient medium, and on the following day, the cultured cells were treated with 50 nM KR12 or KR13, followed by culture for 48 hours. Thereafter, the resulting cells were dissolved in a magnesium lysis buffer (MLB), and a RAS activity level was then measured using a RAS activation assay kit (Millipore, MA).

Series [2] is described as follows: Mass spectrometry of mouse urine and mouse bile for KR12 and decomposed product. In kind it is in vivo. How it is done:
The FITC-labeled KR12 (10 nmol) was administered into the vein of nude mice, into which SW480 cells had been transplanted, and thereafter, their fluorescent image was observed over time. […] Thereafter, twenty-four hours after the administration, the mice were dissected, and incorporation of FITC into various organs was observed. […] Furthermore, localization of KR12 in the cells of tumor, liver, and kidney was observed under a fluorescence microscope. […] The presence of absence of HR12 and a decomposed product thereof in mouse urine and mouse bile was examined by mass spectrometry. […] In the case of tumor cells, lipids are required for the synthesis of a cell membrane or the like, together with cell division, and thus, in general, incorporation of lipids is increased. In addition, excretion via the lymphatics is undeveloped. […] Such accumulation of KR12 in the liver and the kidney is observed even in normal cells. However, since KR12 cannot retain in the cells, it is discharged into bile and/or urine, and is then excreted from these organs. That is, KR12 has excellent effects that it is promptly discharged from normal cells and retains in cancer cells for a long period of time.

Another series has as its system KRAS gene. Nature of the series: Semi-quantitative analysis of gene expression by RT-PCR. The following applies: LS180 (KRAS gene codon 12 mutation), 50 nM, 48 hours, FIG. 11B. The series is classed as cell-based, human. How it is done: HT29 and LS180 were each cultured in a 12-well plate. On the following day, the cells were treated with 50 nM KR12 or KR13, and were then cultured for 48 hours. Thereafter, the cultured cells were harvested, and RNA was then extracted. For the extraction, RT-PCR was carried out using RNeasy mini kit (Qiagen, CA). Subsequently, using the extracted RNA as a template, cDNA for reverse transcription was prepared by employing Super Script VILO cDNA Synthesis Kit (Invitrogen, CA). Using the prepared cDNA as a template, PCR was carried out. After a reaction had been carried out at 94° C. for 5 minutes, a reaction cycle of 94° C.-30 seconds, 55° C.-30 seconds, and 72° C.-30 seconds was repeated 20 times. Finally, an elongation reaction was carried out at 72° C. for 7 minutes. The PCR product was subjected to electrophoresis on 2% agarose gel. The amount of the PCR product was calculated using a photograph of a band stained with ethidium bromide.
The below-mentioned primer set was used in PCR.
A forward primer (sense) and a reverse primer (antisense), which amplify both mutant and wild-type KRAS genes, and a forward primer (sense) and a reverse primer (antisense) for an RPS18 (ribosomal protein S18) gene used as an internal standard are shown below.

The test system of the next series is LS180. Nature of the series: Cell growth of KR12-treated LS180 cells (FIG. 12B). In kind it is cell-based, human. The following applies: LS180, FIG. 12B.

Regarding `CC(=O)Nc1cn(C)c(C(=O)Nc2cc(C(=O)NCCC(=O)Nc3cn(C)c(C(=O)Nc4cn(C)c(C(=O)Nc5cc(C(=O)Nc6cn(C)c(C(=O)NCCCC(=O)Nc7cc(C(=O)Nc8cn(C)c(C(=O)NCCC(=O)Nc9cc(C(=O)Nc%10cc(C(=O)Nc%11ccc%12[nH]c(C(=O)N%13CC(CCl)c%14c%13cc(O)c%13ccccc%14%13)cc%12c%11)n(C)c%10)n(C)c9)n8)n(C)c7)n6)n(C)c5)n4)n3)n(C)c2)n1` (centres unmarked) [KR12], the IC50 in the series on HT-29 worked out at 102 nM; with Caco-2 it was 105 nM; with DLD-1 it was 153 nM; with SW1463, 178 nM; in the series on SNU-C2B, 57 nM; in the series on SW620, 17 nM. In addition, the IC50 in the series with SW480 was 31 nM. Moreover, the “activity of the detected KRAS protein (RAS activity level)” value in series [1] was “decreased”. Also, the “metabolic degradation of excreted compound” value in series [2] was “discharged in a state in which it was not subjected to metabolic degradation”. Further, the “expression of the KRAS gene” value in the series on KRAS gene is on record as “significantly suppressed”. Further, the cell growth result in the series on LS180 was “suppressed”.
